Reference: US8507548B2, “Method for treating addiction using quercetin-containing compositions” (Quercegen Pharmaceuticals LLC, priority 2008, dated 2013)

Experiments:
neuron cells = test: re-uptake of neurotransmitters by neuron cells; assay type: cell-based
[1] = test system: withdrawal symptoms accompanied with addiction; settings: e.g., alcohol abstinence-induced anxiety and convulsion; Joshi et al., J. Med. Food 2005; cited from earlier work

SMILES: O=c1c(O)c(-c2ccc(O)c(O)c2)oc2cc(O)cc(O)c12 [Quercetin]
- re-uptake of neurotransmitters by neuron cells (neuron cells): block re-uptake of neurotransmitters by neuron cells
- effect on withdrawal symptoms accompanied with addiction [1]: alleviate withdrawal symptoms
